How the values were obtained:
[1] = system: L1210; experiment: Cytotoxicity tested against L1210 (murine leukemia) cell line using MTT assay; type: functional, cell-based; conditions: Mus musculus
[2] = system: P815; experiment: Cytotoxicity tested against P815 (murine mastocytoma) cell line using MTT assay; type: functional, cell-based; conditions: Mus musculus

SMILES | IC50 [1] [µM] | IC50 [2] [µM]
NCCCCNC(=O)c1cc(NC(=O)c2nc(NC(=O)CCCC(=O)Nc3ccc4oc(C(=O)N5CC(CCl)c6ccc(O)cc65)cc4c3)c[nH]2)c[nH]1 (stereo not drawn) | 45 | 77
NCCCCNC(=O)c1cc(NC(=O)c2cc(NC(=O)CCCC(=O)Nc3ccc4oc(C(=O)N5CC(CCl)c6ccc(O)cc65)cc4c3)c[nH]2)c[nH]1 (stereo not drawn) | 28 | 41
NCCCCNC(=O)c1nc(NC(=O)c2cc(NC(=O)CCCC(=O)Nc3ccc4oc(C(=O)N5CC(CCl)c6ccc(O)cc65)cc4c3)c[nH]2)c[nH]1 (stereo not drawn) | 6.7 | 9.1
NCCCCNC(=O)c1nc(NC(=O)c2nc(NC(=O)CCCC(=O)Nc3ccc4oc(C(=O)N5CC(CCl)c6ccc(O)cc65)cc4c3)c[nH]2)c[nH]1 (stereo not drawn) | 6.8 | 52

— ChEMBL document CHEMBL1134876, “Sequence selective recognition of DNA by hairpin conjugates of a racemic seco-cyclopropaneindoline-2-benzofurancarboxamide and polyamides” (Bioorg Med Chem Lett, 2002)
